Measurements from PubChem BioAssay AID330 (DTP/NCI, 2004).
“And” between values parts separate entries of the source, which are not always exact repeats. Equal entries are not always repeated. Toxic doses and inconclusive results are not listed.

System: P388 leukemia ip, CD2F1 mice, survival T/C
Assay: NCI In Vivo Anticancer Drug Screen. Data for tumor model P388 Leukemia (intraperitoneal) in CD2F1 (CDF1) mice
Details: endpoint: median survival time, higher = longer survival
In short: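 Mice carrying the transplanted tumor received test compound or vehicle. Survival was recorded in each group, and the value is the treated-group measurement divided by that of the vehicle-treated control group.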

[1] = dose: 50.0 mg/kg/injection, schedule: Q01DX005 (ip), vehicle: Klucel (hydroxypropylcellulose) (HPC)
[2] = dose: 100.0 mg/kg/injection, schedule: Q01DX005 (ip), vehicle: Klucel (hydroxypropylcellulose) (HPC)
[3] = dose: 12.5 mg/kg/injection, schedule: Q01DX009 (ip), vehicle: distilled water + Tween-80
[4] = dose: 60.0 mg/kg/injection, schedule: Q01DX005 (ip), vehicle: saline with Tween-80
[5] = dose: 120.0 mg/kg/injection, schedule: Q01DX005 (ip), vehicle: saline with Tween-80
[6] = dose: 100.0 mg/kg/injection, schedule: Q04DX003 (ip), vehicle: Klucel (hydroxypropylcellulose) (HPC)
[7] = dose: 200.0 mg/kg/injection, schedule: Q04DX003 (ip), vehicle: Klucel (hydroxypropylcellulose) (HPC)
[8] = dose: 400.0 mg/kg/injection, schedule: Q04DX003 (ip), vehicle: Klucel (hydroxypropylcellulose) (HPC)
[9] = dose: 50.0 mg/kg/injection, schedule: Q01DX009 (ip), vehicle: saline
[10] = dose: 100.0 mg/kg/injection, schedule: Q01DX009 (ip), vehicle: saline
[11] = dose: 240.0 mg/kg/injection, schedule: Q01DX005 (ip), vehicle: saline with Tween-80

`Cn1ncc(=O)[nH]c1=O` was tested, and the T/C [1] was 103 % of control, the T/C [2] was 98 % of control and the T/C (dose: 200.0 mg/kg/injection, schedule: Q01DX005 (ip), vehicle: Klucel (hydroxypropylcellulose) (HPC)) was 103 % of control.

In the case of `Nc1cc2[nH]cnc2c(=O)[nH]1`, the T/C (dose: 6.25 mg/kg/injection, schedule: Q01DX009 (ip), vehicle: suspension in saline) is reported as 109 % of control and 95 % of control, the T/C (dose: 12.5 mg/kg/injection, schedule: Q01DX009 (ip), vehicle: suspension in saline) is reported as 101 % of control and 113 % of control and 97 % of control and the T/C (dose: 25.0 mg/kg/injection, schedule: Q01DX009 (ip), vehicle: Klucel (hydroxypropylcellulose) (HPC)) is reported as 100 % of control. The T/C (dose: 25.0 mg/kg/injection, schedule: Q01DX009 (ip), vehicle: suspension in saline) was 103 % of control and 107 % of control and 96 % of control, the T/C (dose: 50.0 mg/kg/injection, schedule: Q01DX009 (ip), vehicle: Klucel (hydroxypropylcellulose) (HPC)) was 108 % of control and the T/C (dose: 100.0 mg/kg/injection, schedule: Q01DX009 (ip), vehicle: suspension in saline) was 99 % of control and 113 % of control. For the same compound, the T/C (dose: 200.0 mg/kg/injection, schedule: Q01DX009 (ip), vehicle: Klucel (hydroxypropylcellulose) (HPC)) was 100 % of control, the T/C (dose: 200.0 mg/kg/injection, schedule: Q01DX009 (ip), vehicle: saline with Tween-80) was 95 % of control and the T/C (dose: 200.0 mg/kg/injection, schedule: Q01DX009 (ip), vehicle: suspension in saline) was 86 % of control and 87 % of control.

`C[N+](C)(CC(=O)Nc1ccc(Cl)c(Cl)c1)CC(=O)c1ccc(Cl)c(Cl)c1` was tested, and the T/C (dose: 25.0 mg/kg/injection, schedule: Q04DX003 (ip), vehicle: saline with Tween-80) was 100 % of control, the T/C (dose: 50.0 mg/kg/injection, schedule: Q04DX003 (ip), vehicle: saline with Tween-80) was 100 % of control and the T/C (dose: 100.0 mg/kg/injection, schedule: Q04DX003 (ip), vehicle: saline with Tween-80) was 90 % of control.

`Cn1cc(C2NC(=O)c3ccccc3N2)c2ccccc21` (stereo unspecified) was tested, and the T/C (dose: 25.0 mg/kg/injection, schedule: Q01DX005 (ip), vehicle: Klucel (hydroxypropylcellulose) (HPC)) was 102 % of control, the T/C [1] was 106 % of control and the T/C (dose: 88.0 mg/kg/injection, schedule: Q01DX005 (ip), vehicle: Klucel (hydroxypropylcellulose) (HPC)) was 113 % of control. The T/C [2] was 115 % of control.

With `Cc1ccc(S(=O)(=O)OC(C)c2[nH]c(=O)n(C3CCCO3)c(=O)c2F)cc1` (stereo unspecified) the T/C (dose: 50.0 mg/kg/injection, schedule: Q01DX005 (ip), vehicle: saline with Tween-80) was 99 % of control, the T/C (dose: 100.0 mg/kg/injection, schedule: Q01DX005 (ip), vehicle: saline with Tween-80) was 91 % of control and the T/C (dose: 200.0 mg/kg/injection, schedule: Q01DX005 (ip), vehicle: saline with Tween-80) was 93 % of control.

`COC(=O)Nc1nc2ccc(C(=O)c3ccccc3)cc2[nH]1` was tested, and the T/C (dose: 2.0 mg/kg/injection, schedule: Q04DX003 (ip), vehicle: saline with Tween-80) was 100 % of control, the T/C (dose: 4.0 mg/kg/injection, schedule: Q04DX003 (ip), vehicle: saline with Tween-80) was 100 % of control and the T/C (dose: 8.0 mg/kg/injection, schedule: Q04DX003 (ip), vehicle: saline with Tween-80) was 113 % of control. The T/C (dose: 16.0 mg/kg/injection, schedule: Q04DX003 (ip), vehicle: saline with Tween-80) was 118 % of control, the T/C (dose: 32.0 mg/kg/injection, schedule: Q04DX003 (ip), vehicle: saline with Tween-80) was 202 % of control and the T/C (dose: 64.0 mg/kg/injection, schedule: Q04DX003 (ip), vehicle: saline with Tween-80) was 190 % of control. For the same compound, the T/C (dose: 80.0 mg/kg/injection, schedule: Q04DX003 (ip), vehicle: other) was 192 % of control, the T/C (dose: 80.0 mg/kg/injection, schedule: Q04DX003 (oral), vehicle: other) was 112 % of control and 113 % of control and the T/C (dose: 80.0 mg/kg/injection, schedule: Q04DX003 (oral), vehicle: saline) was 98 % of control. The T/C (dose: 320.0 mg/kg/injection, schedule: Q04DX003 (oral), vehicle: saline) was 115 % of control and the T/C (dose: 1280.0 mg/kg/injection, schedule: Q04DX003 (oral), vehicle: saline) was 165 % of control.

For `O=C1C=CC(=O)N1c1ccc(N2C(=O)C=CC2=O)cc1`, the T/C (dose: 0.78 mg/kg/injection, schedule: Q01DX009 (ip), vehicle: distilled water + Tween-80) was 102 % of control and 115 % of control, the T/C (dose: 1.56 mg/kg/injection, schedule: Q01DX009 (ip), vehicle: distilled water + Tween-80) was 103 % of control and 120 % of control and the T/C (dose: 3.13 mg/kg/injection, schedule: Q01DX009 (ip), vehicle: distilled water + Tween-80) was 121 % of control and 97 % of control. For the same compound, the T/C (dose: 6.25 mg/kg/injection, schedule: Q01DX009 (ip), vehicle: distilled water + Tween-80) was 112 % of control and 118 % of control and the T/C [3] was 105 % of control.

For `CC(=O)SSC12CC3CC(CC(C3)C1)C2`, the T/C (dose: 30.0 mg/kg/injection, schedule: Q01DX005 (ip), vehicle: saline with Tween-80) was 100 % of control, the T/C [4] was 100 % of control and 101 % of control and the T/C [5] was 100 % of control and 104 % of control.

For `[O-][n+]1cc2ccccc2c2ccccc21`, the T/C (dose: 100.0 mg/kg/injection, schedule: Q04DX003 (ip), vehicle: saline) was 100 % of control, the T/C (dose: 200.0 mg/kg/injection, schedule: Q04DX003 (ip), vehicle: saline) was 100 % of control and the T/C (dose: 400.0 mg/kg/injection, schedule: Q04DX003 (ip), vehicle: saline) was 99 % of control.

For `C/C1=C2N=C(/C=C3N=C(/C(C)=C4\[N-]C(C(CC(N)=O)C4(C)CCC(=O)NCC(C)OP(=O)(O)OC4C(CO)OC(n5cnc6cc(C)c(C)cc65)C4O)C4(C)N=C1C(CCC(N)=O)C4(C)CC(N)=O)C(CCC(N)=O)C\3(C)C)C(CCC(N)=O)C/2(C)CC(N)=O.[CH2-]CC.[Co+2]` (stereo unspecified), the T/C (dose: 76.1 micrograms/kg/injection, schedule: Q#A X Z (ip), vehicle: water) was 88 % of control and the T/C (dose: 7610.0 micrograms/kg/injection, schedule: Q#A X Z (ip), vehicle: water) was 99 % of control.

For `COC(=O)C1c2ccccc2C(C(=O)OC)C(C(=O)OC)C(C(=O)OC)c2ccccc21` (stereo unspecified), the T/C [6] was 102 % of control, the T/C [7] was 102 % of control and the T/C [8] was 99 % of control.

`Cc1ccc(NC(=O)N2CCOCC2)cc1NC(=O)N1CCOCC1` was tested, and the T/C [9] was 100 % of control and the T/C [10] was 91 % of control.

In the case of `O=C(/C=C/c1c[nH]c2ccccc12)c1cccc([N+](=O)[O-])c1`, the T/C [4] is reported as 97 % of control, the T/C [5] is reported as 94 % of control and the T/C [11] is reported as 92 % of control.

In the case of `COc1cc(C=Nc2ccc(-n3ccnc3C)cc2)ccc1N(CCCl)CCCl`, the T/C (dose: 5.0 mg/kg/injection, schedule: Q01DX009 (ip), vehicle: Klucel (hydroxypropylcellulose) (HPC)) is reported as 170 % of control, the T/C (dose: 10.0 mg/kg/injection, schedule: Q01DX009 (ip), vehicle: Klucel (hydroxypropylcellulose) (HPC)) is reported as 181 % of control and the T/C (dose: 20.0 mg/kg/injection, schedule: Q01DX009 (ip), vehicle: Klucel (hydroxypropylcellulose) (HPC)) is reported as 106 % of control.

In the case of `N#CCN=C(N)NN`, the T/C [6] is reported as 105 % of control, the T/C [7] is reported as 94 % of control and the T/C [8] is reported as 108 % of control.

For `N#C/C(=C\c1ccncc1)c1ccccc1`, the T/C (dose: 3.13 mg/kg/injection, schedule: Q01DX009 (ip), vehicle: saline with Tween-80) was 90 % of control, the T/C (dose: 6.25 mg/kg/injection, schedule: Q01DX009 (ip), vehicle: saline with Tween-80) was 95 % of control and the T/C (dose: 12.5 mg/kg/injection, schedule: Q01DX009 (ip), vehicle: saline with Tween-80) was 92 % of control. The T/C (dose: 25.0 mg/kg/injection, schedule: Q01DX009 (ip), vehicle: saline with Tween-80) was 109 % of control.

For `COc1cc(OC)c(C/C=C/c2ccccc2)cc1O`, the T/C (dose: 2.5 mg/kg/injection, schedule: Q01DX009 (ip), vehicle: saline with Tween-80) was 100 % of control, the T/C (dose: 5.0 mg/kg/injection, schedule: Q01DX009 (ip), vehicle: saline with Tween-80) was 100 % of control and the T/C (dose: 10.0 mg/kg/injection, schedule: Q01DX009 (ip), vehicle: saline with Tween-80) was 102 % of control.

`NC(=O)C1CCCN1C(=O)/C=C\c1ccccc1` (stereo unspecified) was tested, and the T/C [4] was 109 % of control, the T/C [5] was 112 % of control and the T/C [11] was 101 % of control.

`Cc1ccc2c(c1)C1(SCC(=O)N1c1ccc(Cl)cc1)C(=O)N2` (stereo unspecified) was tested, and the T/C [4] was 101 % of control, the T/C [5] was 100 % of control and the T/C [11] was 100 % of control.

In the case of `Cc1cccc(Cl)c1NC(=O)C(C)C`, the T/C (dose: 100.0 mg/kg/injection, schedule: Q04DX003 (ip), vehicle: other) is reported as 104 % of control, the T/C (dose: 200.0 mg/kg/injection, schedule: Q04DX003 (ip), vehicle: other) is reported as 109 % of control and the T/C (dose: 400.0 mg/kg/injection, schedule: Q04DX003 (ip), vehicle: other) is reported as 90 % of control.

In the case of `Cc1cc(C)nc(/N=C/c2ccccc2O)c1`, the T/C [9] is reported as 98 % of control, the T/C [10] is reported as 88 % of control and the T/C (dose: 200.0 mg/kg/injection, schedule: Q01DX009 (ip), vehicle: saline) is reported as 91 % of control.

For `N#Cc1ccc(NC(=O)Nc2nccs2)cc1`, the T/C [3] was 108 % of control and the T/C (dose: 25.0 mg/kg/injection, schedule: Q01DX009 (ip), vehicle: distilled water + Tween-80) was 117 % of control.
